Tests used:
Test in all cases: relative viability (nuclei count vs DMSO), 5 days (fraction); higher = more cells survive
[1] = compound: COc1ncc(-c2ccc3nccc(-c4ccnnc4)c3c2)cc1NS(=O)(=O)c1ccc(F)cc1F [Omipalisib] + CCNC(=O)c1noc(-c2cc(C(C)C)c(O)cc2O)c1-c1ccc(CN2CCOCC2)cc1 [Luminespib] (partner 0.01 µM)
In short: (§1)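 Lung cancer cell lines, seeded in 1536-well plates, were treated the following day by pin tool with a single drug or with five library-drug doses (not always all listed) in √10 steps on top of a fixed anchor-drug dose. Cells were fixed and nuclei stained in one step after 5 days, and nuclei were counted. Relative viability is the nuclei count for treated wells divided by that for vehicle wells, reported as medians of duplicate plates.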

[2] = compound: COc1ncc(-c2ccc3nccc(-c4ccnnc4)c3c2)cc1NS(=O)(=O)c1ccc(F)cc1F [Omipalisib] + Cc1nc(NC(=O)N2CCC[C@H]2C(N)=O)sc1-c1ccnc(C(C)(C)C(F)(F)F)c1 [Alpelisib] (partner 2 µM)
In short: as §1

[3] = compound: COc1ncc(-c2ccc3nccc(-c4ccnnc4)c3c2)cc1NS(=O)(=O)c1ccc(F)cc1F [Omipalisib] + COc1cccc2cc(-c3nc([C@H]4CC[C@H](C(=O)O)CC4)n4ncnc(N)c34)[nH]c12 [OSI-027] (partner 0.5 µM)
In short: as §1

Cell Line	relative viability ([1]; first compound 0.0003 µM)	relative viability ([1]; first compound 0.003 µM)	relative viability ([1]; first compound 0.03 µM)	relative viability ([2]; first compound 0.0003 µM)	relative viability ([2]; first compound 0.003 µM)	relative viability ([2]; first compound 0.03 µM)	relative viability ([3]; first compound 0.0003 µM)	relative viability ([3]; first compound 0.003 µM)	relative viability ([3]; first compound 0.03 µM)
HOP-62	0.961	1.05	0.883	0.911	0.926	0.666	0.93	0.56	0.576
LC-2-ad	0.825	1.05	0.461	0.858	0.856	0.425	0.732	0.501	0.439
LCLC-97TM1	0.692	0.511	0.202	0.238	0.227	0.145	0.589	0.251	0.2
LCLC-103H	0.999	0.714	0.427	0.96	0.889	0.643	0.436	0.354	0.313
LK-2	0.153	0.2	0.174	0.962	0.608	0.521	0.212	0.13	0.173
LOU-NH91	0.345	0.386	0.337	0.681	0.677	0.53	0.705	0.58	0.503
LU99A	0.201	0.206	0.24	0.492	0.439	0.277	0.315	0.213	0.239
LXF-289	0.536	0.456	0.232	1.06	1.02	0.792	0.764	0.493	0.357
NCI-H23	0.225	0.219	0.218	0.596	0.444	0.381	0.62	0.365	0.321
NCI-H322M	0.518	0.517	0.298	1.07	0.77	0.452	0.562	0.481	0.412
NCI-H358	0.325	0.221	0.0986	0.963	0.594	0.524	0.595	0.473	0.16
NCI-H441	0.207	0.28	0.234	0.585	0.588	0.441	0.642	0.35	0.26
NCI-H460	0.0375	0.0227	0.0165	0.362	0.241	0.0908	0.661	0.258	0.0847
NCI-H520	0.208	0.232	0.212	0.802	0.608	0.292	0.235	0.214	0.203
NCI-H596	0.98	0.657	0.285	0.491	0.363	0.395	0.726	0.352	0.309
NCI-H647	0.233	0.16	0.13	1.09	0.98	0.33	0.547	0.408	0.264
NCI-H650	0.81	0.592	0.378	1.03	0.741	0.487	0.447	0.384	0.315
